Values quoted from earlier work, collected in patent publication US20200306231A1, “ORAL HYPOGLYCEMIC AGENTS AS FOOD ADDITIVES AND SUPPLEMENTS” (priority 2017, published 2020).

Experiments:
[1] = in vivo
[2] = lung cancer after chemotherapy; type 2 diabetics taking metformin
[3] = another study
[4] = ovarian cancer after chemotherapy, type 2 diabetes
[5] = system: mouse model
[6] = type 2 diabetes patients followed for 10 years; taking metformin compared with not taking metformin
[7] = DPPOS
[8] = type 2 diabetes population; compared with other anti-diabetes drugs
[9] = type 2 diabetes
[10] = neoadjuvant chemotherapy; type 2 diabetes patients taking metformin
[11] = system: nematodes

**Q.** With `COc1ccc2cc3[n+](cc2c1OC)CCc1cc2c(cc1-3)OCO2` [berberine] as the compound, how does the “side effect known to be caused” value [1] read?
**A.** constipation

**Q.** Which “side effect known to be caused” value [1] does the source give for `CN(C)C(=N)N=C(N)N` [metformin] here?
**A.** diarrhea

**Q.** What about the overall survival rate [2] of the same compound?
**A.** 20 months

**Q.** What about the progression free survival [2] of the same compound?
**A.** 8.4 months

**Q.** What about the “improved survival with metformin use” value [3] of the same compound?
**A.** 24%

**Q.** What about the “risk reduction for developing prostate cancer” value (type 2 diabetics taking metformin compared with not taking) of the same compound?
**A.** no risk reduction

**Q.** And the “overall survival rate greater, taking metformin versus not taking” value (type 2 diabetics who have prostate cancer)?
**A.** 45%

**Q.** And the “5-year overall survival rate” value ([4]; metformin users)?
**A.** 63%

**Q.** What about the “progression free survival at 5 years” value ([4]; taking metformin) of the same compound?
**A.** 51%

**Q.** And the “lifespan and health span” value [5]?
**A.** extends both lifespan and health span

**Q.** What about the “lower risk of developing any type of cancer” value [6] of the same compound?
**A.** 54%

**Q.** What about the safety and tolerability [7] of the same compound?
**A.** safe and well tolerated

**Q.** And the weight loss [7]?
**A.** moderate but durable weight loss

**Q.** What about the “risk of cardiovascular disease” value [8] of the same compound?
**A.** decreased risk of cardiovascular disease

**Q.** And the “risk of developing colorectal cancer, greater for those not taking metformin versus those taking metformin” value [9]?
**A.** 200%

**Q.** And the “survival greater for those taking metformin versus not taking” value [9]?
**A.** 34%

**Q.** And the “chance of having a complete response (no residual cancer found during surgery)” value [10]?
**A.** 24%

**Q.** And the lifespan [11]?
**A.** extends the lifespan
